The test system of one series is P388. In words: Cytotoxicity against mouse P388 ATCC CCL 46 cells. Format: functional, cell-based.
The subject of the next series is Human alphaherpesvirus 1. Description: Antiviral activity against HSV1 F ATCC VR 733 in african green monkey BSC1 cells. Format: functional, organism-based. As to conditions: BSC-1.
Series [1] can be described thus: Cytotoxicity against african green monkey BSC1 cells at 40 ug/disc. Format: cell-based. As to conditions: chlorocebus aethiops, bsc-1.
A further series relates to Amorphotheca resinae. Description: Antifungal activity against Cladosporium resinae. Format: functional, organism-based.
The subject of the next series is Bacillus subtilis. In words: Antibacterial activity against Bacillus subtilis. Format: functional.
Series [2] concerns Trichophyton mentagrophytes. In words: Antifungal activity against Trichophyton mentagrophytes. In kind it is functional, organism-based.
A further series deals with Escherichia coli. In words: Antibacterial activity against Escherichia coli. In kind it is functional, organism-based.
The test system of another series is Candida albicans. Description: Antifungal activity against Candida albicans. Format: functional, organism-based.
The next series deals with Poliovirus 1. Description: Antiviral activity against PV1 in african green monkey BSC1 cells. In kind it is functional, organism-based. To be noted: BSC-1.
The next series concerns Pseudomonas aeruginosa. In words: Antibacterial activity against Pseudomonas aeruginosa. In kind it is functional, organism-based.

≈ marks a conversion by molar mass, not a printed value. Calls of active or inactive are those of the source. The calls are words filed in the database; no cut-off is given here.

The text below walks through data of ChEMBL document CHEMBL1145551, “Further pterocellins from the New Zealand marine bryozoan Pterocella vesiculosa” (J Nat Prod, 2008).

In the series with P388, `COc1cn2c(cc1=O)C(=O)c1ccnc(CC(C)C)c1-2` [PTEROCELLIN A] gave a half-maximal inhibitory concentration (IC50) of 0.477 µg/mL (≈ 1.68 µM).

`COc1cn2c(cc1=O)C(=O)c1ccnc(Cc3ccccc3)c1-2` [PTEROCELLIN B]: half-maximal inhibition with P388 (IC50) was put at 0.323 µg/mL (≈ 1.01 µM).

On to `COc1cn2c(c(CCCCC(C)=O)c1=O)C(=O)c1ccnc(CC(C)C)c1-2` [PTEROCELLIN C], for which the result (with Human alphaherpesvirus 1; in the series on Amorphotheca resinae; in series [2]; in the series on Escherichia coli; in the series with Candida albicans; in the series with Poliovirus 1) was inactive. In addition, the outcome with Pseudomonas aeruginosa was inactive. The Activity entry in series [1] is on record as “Non-toxic”. Also, the MIC in the series on Bacillus subtilis came out at 0.2 µg. Besides, the 50% inhibitory concentration (IC50) in the series on P388 was greater than 6.25 µg/mL.

`COc1cn2c(c(C(C)C)c1=O)C(=O)c1ccnc(CC(C)C)c1-2` [PTEROCELLIN D]: the outcome in the series on Amorphotheca resinae, in the series with Candida albicans and in the series on Pseudomonas aeruginosa was inactive. Besides, in the series with Bacillus subtilis, the MIC is 0.5 µg. Further, the IC50 in the series on P388 was determined as 4.77 µg/mL (≈ 14.6 µM).

For `COc1cn2c(c(-c3c4n(cc(OC)c3=O)-c3c(ccnc3CC(C)C)C4=O)c1=O)C(=O)c1ccnc(CC(C)C)c1-2` [PTEROCELLIN E], the outcome (in the series on Human alphaherpesvirus 1; in the series with Amorphotheca resinae; in series [2]; with Escherichia coli; with Candida albicans; with Poliovirus 1) was inactive. In the series on Pseudomonas aeruginosa, the result was inactive. In series [1], the Activity result is reported as “Non-toxic”. Moreover, the MIC with Bacillus subtilis was found to be 1 µg. This compound also returned a 50% inhibitory concentration (IC50) in the series on P388 greater than 6.25 µg/mL.

Consider `COc1cn2c(c(Cc3c4n(cc(OC)c3=O)-c3c(ccnc3CC(C)C)C4=O)c1=O)C(=O)c1ccnc(CC(C)C)c1-2` [PTEROCELLIN F], for which the result (in the series with Human alphaherpesvirus 1; in the series on Amorphotheca resinae; in series [2]; with Escherichia coli; with Candida albicans; in the series on Poliovirus 1) was inactive. In addition, the outcome with Pseudomonas aeruginosa was inactive. Moreover, the Activity result in series [1] is reported as “Non-toxic”. The same compound showed an MIC in the series with Bacillus subtilis of 1 µg. Further, the half-maximal inhibitory concentration (IC50) in the series with P388 is greater than 6.25 µg/mL.
